Results on 16 compounds are retold here after patent US9573913B2, “Cathepsin cysteine protease inhibitors” (Merck Sharp & Dohme Corp., priority 2013, dated 2017).

One experiment concerns the target T1, human cathepsin F (Homo sapiens, UniProt Q9UBX1).
T1 sequence (Q9UBX1 271-484): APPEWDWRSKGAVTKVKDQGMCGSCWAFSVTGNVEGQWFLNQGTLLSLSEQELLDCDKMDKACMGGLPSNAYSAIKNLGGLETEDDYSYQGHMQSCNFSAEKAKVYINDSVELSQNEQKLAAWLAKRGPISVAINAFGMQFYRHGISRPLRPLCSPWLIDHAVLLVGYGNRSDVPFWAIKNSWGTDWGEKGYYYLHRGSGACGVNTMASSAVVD
Briefly: Cathepsin F assay (hCat F). The format is biochemical. The settings on record: Z-Phe-Arg-AMC substrate, pH 5.5, 15 min preincubation; read-out: hCat F (IP (nM)). The gist of the method: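 AMC release from Z-Phe-Arg-AMC, added at 8 μM, was monitored fluorometrically (360/460 nm) for 20 min after 10 nM enzyme and compound had been preincubated 15 min at room temperature. Buffer: MES 50 mM pH 5.5, EDTA and DTT 2.5 mM each, 10% DMSO. Compound DMSO dilutions spanned 500–0.025 μM (3-fold). Dose-response fitting gave % inhibition.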

The next experiment addresses human cathepsin K (UniProt P43236). The experiment in a line: Cathepsin K Assay (hrbCat K). The experiment is classed as biochemical. The settings on record: Z-Leu-Arg-AMC substrate, pH 5.5, 15 min preincubation; read-out: hrbCat K (IP (nM)). The gist of the method: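 Human cathepsin K (0.4 nM) was preincubated 15 min at room temperature with compound in 50 mM MES pH 5.5, 2.5 mM EDTA, 2.5 mM DTT and 10% DMSO. Inhibition was fitted to a dose-response model.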

As to `CC(C)(C)c1nc([C@@H]2CC[C@H](F)C[C@H]2C(=O)NC2(C#N)CC2)c(-c2ccc(N3CCS(=O)(=O)CC3)cc2)o1` [Example 168, (1R,2R,5S)-2-(2-(tert-butyl)-5-(4-(1,1-dioxidothiomorpho-lino)phenyl)oxazol-4-yl)-N-(1-cyanocyclopropyl)-5-fluorocyclohexane-carboxamide], the IC50 on human cathepsin F was at least 10000 nM; on human cathepsin K, 3.3 nM.

As to `C[C@@H](C#N)NC(=O)[C@@H]1C[C@@H](F)CC[C@H]1c1nc(C(C)(C)C)oc1-c1ccc(N2CCS(=O)(=O)CC2)cc1` [Example 169, (1R,2R,5S)-2-(2-(tert-butyl)-5-(4-(1,1-dioxidothiomorpho-lino)phenyl)oxazol-4-yl)-N-((S)-1-cyanoethyl)-5-fluorocyclohexane-carboxamide], the IC50 at human cathepsin F worked out at 5660 nM; at human cathepsin K, 2.7 nM.

For `CC(C)[C@@H](C#N)NC(=O)[C@@H]1C[C@@H](F)CC[C@H]1c1nc(C(C)(C)C)oc1-c1ccc(N2CCS(=O)(=O)CC2)cc1` [Example 170, (1R,2R,5S)-2-(2-(tert-butyl)-5-(4-(1,1-dioxidothiomorpho-lino)phenyl)oxazol-4-yl)-N-((S)-1-cyano-2-methylpropyl)-5-fluorocyclohexane-carboxamide], the figures for the IC50 on human cathepsin F and at human cathepsin K were at least 10000 nM and 12 nM, respectively.

Consider `C[C@@H](C#N)NC(=O)[C@@H]1C[C@@H](F)CC[C@H]1c1nc(C(C)(C)C)oc1-c1ccc(N2CCS(=N)(=O)CC2)cc1` [Example 171, (1R,2R,5S)-2-(2-(tert-butyl)-5-(4-(1-imino-1-oxidothiomorpholino)phenyl)oxazol-4-yl)-N-((S)-1-cyanoethyl)-5-fluorocyclohexane-carboxamide], for which the IC50 at human cathepsin F turned out to be 7420 nM; on human cathepsin K, 4.8 nM.

As to `CC(C)[C@@H](C#N)NC(=O)[C@@H]1C[C@@H](F)CC[C@H]1c1nc(C(C)(C)C)oc1-c1ccc(N2CCS(=N)(=O)CC2)cc1` [Example 172, (1R,2R,5S)-2-(2-(tert-butyl)-5-(4-(1-imino-1-oxidothiomorpholino)phenyl)oxazol-4-yl)-N-((S)-1-cyano-2-methylpropyl)-5-fluorocyclohexane-carboxamide], the figures for the IC50 at human cathepsin F and on human cathepsin K were at least 10000 nM and 34.4 nM, respectively.

As for `CN=S1(=O)CCN(c2ccc(-c3oc(C(C)(C)C)nc3[C@@H]3CC[C@H](F)C[C@H]3C(=O)N[C@@H](C)C#N)cc2)CC1` [Example 173, (1R,2R,5S)-2-(2-(tert-butyl)-5-(4-(1-(methylimino)-1-oxidothiomorpholino)phenyl)oxazol-4-yl)-N-((S)-1-cyanoethyl)-5-fluorocyclohexane-carboxamide], the results for the IC50 on human cathepsin F and at human cathepsin K were 6900 nM and 4.7 nM, respectively.

For `CN=S1(=O)CCN(c2ccc(-c3oc(C(C)(C)C)nc3[C@@H]3CC[C@H](F)C[C@H]3C(=O)N[C@H](C#N)C(C)C)cc2)CC1` [Example 174, (1R,2R,5S)-2-(2-(tert-butyl)-5-(4-(1-(methylimino)-1-oxidothiomorpholino)phenyl)oxazol-4-yl)-N-((S)-1-cyano-2-methylpropyl)-5-fluorocyclohexane-carboxamide], the figures for the IC50 at human cathepsin F and at human cathepsin K were at least 10000 nM and 31.3 nM, respectively.

Take `N#CC1(NC(=O)[C@@H]2CCCC[C@H]2c2nc(C3(c4ccccc4)CC3)sc2-c2ccc(N3CCS(=O)(=O)CC3)cc2)CC1` [Example 175, (1R,2R)-N-(1-cyanocyclopropyl)-2-(5-(4-(1,1-dioxidothiomorpho-lino)phenyl)-2-(1-phenylcyclopropyl)thiazol-4-yl)cyclohexane-carboxamide]: the IC50 on human cathepsin F worked out at 1000 nM; on human cathepsin K it was 2.1 nM.

`N#CC1(NC(=O)[C@@H]2C[C@@H](F)CC[C@H]2c2nc(-c3ccc(F)cc3)sc2-c2ccc(N3CCS(=N)(=O)CC3)cc2)CC1` [Example 176, (1R,2R,5S)-N-(1-cyanocyclopropyl)-5-fluoro-2-(2-(4-fluorophenyl)-5-(4-(1-imino-1-oxidothiomorpholino)phenyl)thiazol-4-yl)cyclohexane-carboxamide]: the IC50 turned out to be 3330 nM at human cathepsin F and 3.2 nM at human cathepsin K.

Consider `CN=S1(=O)CCN(c2ccc(-c3sc(-c4ccc(F)cc4)nc3[C@@H]3CC[C@H](F)C[C@H]3C(=O)NC3(C#N)CC3)cc2)CC1` [Example 177, (1R,2R,5S)-N-(1-cyanocyclopropyl)-5-fluoro-2-(2-(4-fluorophenyl)-5-(4-(1-(methylimino)-1-oxidothiomorpholino)phenyl)thiazol-4-yl)cyclohexane-carboxamide], for which the figures for the IC50 at human cathepsin F and on human cathepsin K were 3330 nM and 3.5 nM, respectively.

Take `N#CC1(NC(=O)[C@@H]2CCCC[C@H]2c2nc(NC3CCCCC3)sc2-c2ccc(N3CCS(=O)(=O)CC3)cc2)CC1` [Example 178, (1R,2R)-N-(1-cyanocyclopropyl)-2-(2-(cyclohexylamino)-5-(4-(1,1-dioxidothiomorpho-lino)phenyl)thiazol-4-yl)cyclohexane-carboxamide]: the figures for the IC50 on human cathepsin F and on human cathepsin K were 1000 nM and 41.2 nM, respectively.

For the compound `N#CC1(NC(=O)[C@@H]2CCCC[C@H]2c2nc(Nc3ccccc3)sc2-c2ccc(N3CCS(=O)(=O)CC3)cc2)CC1` [Example 179, (1R,2R)-N-(1-cyanocyclopropyl)-2-(5-(4-(1,1-dioxidothiomorpho-lino)phenyl)-2-(phenylamino)thia-zol-4-yl)cyclohexane-carboxamide], the figures for the IC50 at human cathepsin F and at human cathepsin K were 3740 nM and 34.6 nM, respectively.

For `N#CC1(NC(=O)[C@@H]2CCCC[C@H]2c2nc(Nc3ccc(F)cc3)sc2-c2ccc(N3CCS(=O)(=O)CC3)cc2)CC1` [Example 180, (1R,2R)-N-(1-cyanocyclopropyl)-2-(5-(4-(1,1-dioxidothiomorpho-lino)phenyl)-2-((4-fluorophenyl)amino)thiazol-4-yl)cyclohexane-carboxamide], the IC50 at human cathepsin F is 1000 nM; at human cathepsin K it was 43.3 nM.

In the case of `N#CC1(NC(=O)[C@@H]2CCCC[C@H]2c2nc(Nc3ccc(F)cc3F)sc2-c2ccc(N3CCS(=O)(=O)CC3)cc2)CC1` [Example 181, (1R,2R)-N-(1-cyanocyclopropyl)-2-(2-((2,4-difluorophenyl)amino)-5-(4-(1,1-dioxidothiomorpho-lino)phenyl)thiazol-4-yl)cyclohexane-carboxamide], the IC50 stood at 3490 nM on human cathepsin F and 31.9 nM on human cathepsin K.

Consider `N#CN=S1(=O)CCN(c2ccc(-c3sc(-c4ccc(F)cc4)nc3[C@@H]3CCCC[C@H]3C(=O)NC3(C#N)CC3)cc2)CC1` [Example 182, (1R,2R)-N-(1-cyanocyclopropyl)-2-(5-(4-(1-(cyanoimino)-1-oxidothiomorpholino)phenyl)-2-(4-fluorophenyl)thiazol-4-yl)cyclohexane-carboxamide], for which the IC50 was 3330 nM on human cathepsin F and 2.72 nM at human cathepsin K.

Consider `N#CC1(NC(=O)[C@@H]2CCCC[C@H]2c2nc(C(F)(F)c3ccccc3)sc2-c2ccc(N3CCS(=O)(=O)CC3)cc2)CC1` [Example 183, (1R,2R)-N-(1-cyanocyclopropyl)-2-(2-(difluoro(phenyl)methyl)-5-(4-(1,1-dioxidothiomorpho-lino)phenyl)thiazol-4-yl)cyclohexane-carboxamide], for which the IC50 on human cathepsin F came to 810 nM; at human cathepsin K it was 5.7 nM.
